Literature values, collected in patent publication US20090047357A1, “METHOD OF PRODUCING DRUG-CONTAINING WAX MATRIX PARTICLES, EXTRUDER TO BE USED IN THE METHOD AND SUSTAINED-RELEASE PREPARATION CONTAINING CILOSTAZOL” (OTSUKA PHARMACEUTICAL CO., LTD., priority 2005, published 2009).

## Cn1c(=O)c2[nH]cnc2n(C)c1=O [theophylline]
  water solubility: about 0.6 w/v %
